Test results reported in the supplement of paper PMC10307832.

How the values were obtained:
Assay in all cases: relative viability (nuclei count vs DMSO), 5 days (fraction); higher = more cells survive
[1] = compound: CCN(CCO)CCCC(C)Nc1ccnc2cc(Cl)ccc12 [Hydroxychloroquine] + C[C@@H](Oc1cc(-c2cnn(C3CCNCC3)c2)cnc1N)c1c(Cl)ccc(F)c1Cl [Crizotinib] (partner 1 µM)
Method in brief: (§1)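 Values are medians from duplicate plates. Each reflects relative viability, defined as the nuclei count of treated wells over that of vehicle wells. Lung cancer cell lines in 1536-well plates were pin-tool dosed one day after seeding with one drug alone or with a fixed anchor-drug dose plus five library-drug doses (not always all listed) in √10 steps, then fixed, stained and imaged at 4× after 5 days.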

[2] = compound: CCN(CCO)CCCC(C)Nc1ccnc2cc(Cl)ccc12 [Hydroxychloroquine] + O=C(CCCCCCC(=O)Nc1ccccc1)NO [Vorinostat] (partner 1 µM)
Method in brief: as §1

[3] = compound: CCN(CCO)CCCC(C)Nc1ccnc2cc(Cl)ccc12 [Hydroxychloroquine] + CC1(C)CCC(c2ccc(Cl)cc2)=C(CN2CCN(c3ccc(C(=O)NS(=O)(=O)c4ccc(N[C@H](CCN5CCOCC5)CSc5ccccc5)c(S(=O)(=O)C(F)(F)F)c4)cc3)CC2)C1 [Navitoclax] (partner 0.5 µM)
Method in brief: as §1

[4] = compound: CCN(CCO)CCCC(C)Nc1ccnc2cc(Cl)ccc12 [Hydroxychloroquine] + Cc1nc(Nc2ncc(C(=O)Nc3c(C)cccc3Cl)s2)cc(N2CCN(CCO)CC2)n1 [Dasatinib] (partner 0.075 µM)
Method in brief: as §1

| Cell Line | relative viability ([1]; first compound 0.5 µM) | relative viability ([1]; first compound 1.581 µM) | relative viability ([1]; first compound 5 µM) | relative viability ([1]; first compound 15.81 µM) | relative viability ([1]; first compound 50 µM) | relative viability ([2]; first compound 0.5 µM) | relative viability ([2]; first compound 1.581 µM) | relative viability ([2]; first compound 5 µM) | relative viability ([2]; first compound 15.81 µM) | relative viability ([2]; first compound 50 µM) | relative viability ([3]; first compound 0.5 µM) | relative viability ([3]; first compound 1.581 µM) | relative viability ([3]; first compound 5 µM) | relative viability ([3]; first compound 15.81 µM) | relative viability ([3]; first compound 50 µM) | relative viability ([4]; first compound 0.5 µM) | relative viability ([4]; first compound 1.581 µM) | relative viability ([4]; first compound 5 µM) | relative viability ([4]; first compound 15.81 µM) | relative viability ([4]; first compound 50 µM) |
| --- | --- | --- | --- | --- | --- | --- | --- | --- | --- | --- | --- | --- | --- | --- | --- | --- | --- | --- | --- | --- |
| PC-14 | 0.856 | 0.917 | 0.919 | 0.907 | 0.916 | 0.672 | 0.583 | 0.753 | 0.687 | 0.781 | 1.03 | 1.07 | 0.979 | 1.01 | 0.962 | 0.232 | 0.199 | 0.253 | 0.213 | 0.29 |
| NCI-H1648 |  |  |  |  |  | 0.458 | 0.44 | 0.422 | 0.68 | 0.503 |  |  |  |  |  |  |  |  |  |  |
| LCLC-103H | 1.03 | 1.01 | 0.951 | 1.04 | 1.14 | 0.859 | 0.718 | 0.752 | 0.829 | 0.793 |  |  |  |  |  | 0.367 | 0.405 | 0.523 | 0.547 | 0.543 |
| SW 900 |  |  |  |  |  | 0.532 | 0.535 | 0.504 | 0.382 | 0.505 |  |  |  |  |  | 0.586 | 0.574 | 0.671 | 0.528 | 0.559 |
| IA-LM | 0.839 | 0.95 | 0.898 | 0.718 | 0.899 | 1.02 | 1.13 | 1.03 |  | 1.06 | 0.764 | 0.79 | 0.832 | 0.798 | 0.847 |  |  |  |  |  |
| NCI-H1563 | 0.808 | 0.833 | 0.848 | 0.83 | 0.806 |  |  |  |  |  |  |  |  |  |  | 0.509 | 0.501 | 0.449 | 0.475 | 0.421 |
| HCC-44 | 0.821 | 0.804 | 0.87 | 0.829 | 1.01 | 1.1 | 1.09 | 1.14 | 1.1 | 1.14 | 1.02 | 1 | 0.964 | 0.994 | 1.06 |  |  |  |  |  |
| NCI-H358 | 0.515 | 0.579 | 0.587 | 0.516 | 0.591 | 0.695 | 0.731 | 0.72 | 0.673 | 0.655 |  |  |  |  |  | 0.177 | 0.131 | 0.139 | 0.144 | 0.155 |
| ABC-1 | 1.13 | 0.981 | 1.46 | 1.2 | 1.09 | 1.33 | 1.19 | 1.11 | 0.934 | 1.19 |  |  |  |  |  | 0.543 | 0.644 | 0.521 | 0.562 | 0.565 |
| NCI-H522 |  |  |  |  |  | 0.832 |  | 0.882 | 0.904 | 1.01 |  |  |  |  |  | 0.933 | 0.942 | 0.755 | 1.03 | 0.913 |
| NCI-H650 | 0.787 | 0.63 |  | 0.675 | 0.835 | 0.478 | 0.432 | 0.397 | 0.42 | 0.478 |  |  |  |  |  | 0.501 | 0.405 | 0.446 | 0.458 | 0.479 |
| NCI-H1792 | 0.951 | 1.05 | 1.01 | 1.08 | 1.07 |  |  |  |  |  | 0.509 | 0.607 | 0.686 | 0.367 | 0.451 | 0.922 | 0.936 | 0.759 | 0.825 | 0.711 |
